For data set [1], the system named is A549 Cell line (Lung Cancer Cell line). As to the kind of experiment: Cell proliferation assay (MTT), in-vitro anticancer activity against A549 cell line. The data set is classed as cell-based. As to conditions: Homo sapiens, 72 h; for viability at 0.01 µM: A549, 0.01 μM; for viability at 0.1 µM: A549, 0.1 μM; for viability at 2.5 µM: A549, 2.5 μM; for viability at 5 µM: A549, 5 μM; for viability at 10 µM: A549, 10 μM. As to the method:
(§1) Each cell line was plated in 96-well microtiter plates (10,000 cells per well), and serial dilutions of indicated compounds were added. At the end of the incubation period (72 h at 37° C.), cell viability was determined by a tetrazolium dye, MTT (3-(4,5-dimethylthiazol-2-yl)-2,5-diphenyl tetrazolium bromide) (Promega, USA). The formazan crystals were dissolved in DMSO, and the absorbance at 600 nm was recorded using an ELISA plate reader. IC50 values were calculated using nonlinear regression and defined as the concentration needed for a 50% reduction in absorbance of treated versus untreated control cells.
In-Vitro Anticancer Activity Against A549 Cell Line (Lung Cancer Cell Line) (Adenocarcinomic Human Alveolar Basal Epithelial Cells)

Data set [2] relates to U87MG Cell line (glioblastoma cell line). In words: Cell proliferation assay (MTT), in-vitro anticancer activity against U87MG cell line. The data set is classed as cell-based. Particulars: Homo sapiens, U-87 MG, 72 h. As to the method: as §1
In-Vitro Anticancer Activity Against U87MG Cell Line (Glioblastoma Cell Line)

The nature of a further data set: Log P (Table 4). Type of data set: physicochemical. As to conditions: method not stated.

Four compounds from patent US10221165B2, “Flavone based EGFR inhibitors and process for preparation thereof” (Council of Scientific and Industrial Research, priority 2015, dated 2019) can be followed below.

What is called viability is a read-out of living cells in per cent, often relative to untreated cells. The term logP denotes a log measure of how a compound divides between an organic and an aqueous phase. Low readings indicate lower lipophilicity, high ones higher lipophilicity. What is called melting point is the temperature, or range, at which the solid turns liquid. In turn, `COc1ccc2oc(-c3sc(Nc4c(C)cccc4C)nc3N)cc(=O)c2c1` [Compound S1-M12, 2-(2-(2,6-dimethylphenylamino)-4-aminothiazol-5-yl)-6-methoxy-4H-chromen-4-one] registered a melting point of 228 to 230 °C. In data set [1], this compound returned a viability at 0.01 µM of 92.1%, a viability at 0.1 µM of 95.4%, a viability at 2.5 µM of 86.9% and a viability at 5 µM of 78.9%. The same compound yielded a viability at 10 µM in data set [1] of 66.9%. In data set [2], this compound gave a viability at 0.01 µM of 85.1%, a viability at 0.1 µM of 73.4%, a viability at 2.5 µM of 65.9% and a viability at 5 µM of 56.9%. The compound further gave a viability at 10 µM in data set [2] of 45.8%. For the same compound, the lipophilicity (logP) in the data set “Log P (Table 4)” came out at 2.7.
As for `COc1ccc2oc(-c3sc(Nc4c(Cl)cccc4Cl)nc3N)cc(=O)c2c1` [Compound S1-M13, 2-(2-(2,6-dichlorophenylamino)-4-aminothiazol-5-yl)-6-methoxy-4H-chromen-4-one], the melting point was in the range of 260 to 262 °C. Moreover, in data set [1], the viability at 0.01 µM stood at 95.4%, the viability at 0.1 µM amounted to 90.9%, the viability at 2.5 µM came to 82.6% and the viability at 5 µM amounted to 72.6%. Also, the viability at 10 µM in data set [1] worked out at 62.6%. In addition, in data set [2], the viability at 0.01 µM amounted to 90.4%, the viability at 0.1 µM is 81.9%, the viability at 2.5 µM came to 72.4% and the viability at 5 µM worked out at 64.6%. The viability at 10 µM in data set [2] was 55.9%. Besides, in “Log P (Table 4)”, the lipophilicity (logP) was determined as 2.18.
For `COc1ccc(Nc2nc(N)c(-c3cc(=O)c4ccc(OC)cc4o3)s2)cc1` [Compound S1-M14, 2-(2-(4-methoxyphenylamino)-4-aminothiazol-5-yl)-7-methoxy-4H-chromen-4-one], the melting point was 220 to 222 °C. Besides, in data set [1], the viability at 0.01 µM turned out to be 98%, the viability at 0.1 µM stood at 89.1%, the viability at 2.5 µM was determined as 81.1% and the viability at 5 µM amounted to 71.1%. The compound also came in with a viability at 10 µM in data set [1] of 63.1%. Further, in data set [2], the viability at 0.01 µM stood at 91%, the viability at 0.1 µM amounted to 80.1%, the viability at 2.5 µM was found to be 70.6% and the viability at 5 µM worked out at 61.3%. The same compound yielded a viability at 10 µM in data set [2] of 51.1%. Further, the log partition coefficient (logP) in the data set “Log P (Table 4)” came out at 2.6.
For `COc1ccc2c(=O)cc(-c3sc(Nc4ccccc4OC)nc3N)oc2c1` [Compound S1-M15, 2-(2-(2-methoxyphenylamino)-4-aminothiazol-5-yl)-7-methoxy-4H-chromen-4-one], the melting point lay in the range of 210 to 212 °C. For the same compound, in data set [1], the viability at 0.01 µM is 96.1%, the viability at 0.1 µM was found to be 92.7%, the viability at 2.5 µM was determined as 85.3% and the viability at 5 µM stood at 75.3%. In data set [1], the viability at 10 µM came to 68.3%. For the same compound, in data set [2], the viability at 0.01 µM was 89.1%, the viability at 0.1 µM stood at 77.9%, the viability at 2.5 µM worked out at 68.7% and the viability at 5 µM came to 60.7%. The compound also registered a viability at 10 µM in data set [2] of 50.3%. The compound further displayed a logP in “Log P (Table 4)” of 2.5.
